Experimental data taken from patent US9063163B2, “Lyophilised dabigatran” (Boehringer Ingelheim International GmbH, priority 2009, dated 2015).

Legend:
[1] = Solubility of dabigatran (descriptive); type: physicochemical
[2] = Hygroscopicity of dabigatran (descriptive); type: physicochemical; conditions: leads to formation of different hydrated forms

Solubility [1]: sparingly soluble
Hygroscopicity [2]: hygroscopic
Structure (SMILES): [H]/N=C(/N)c1ccc(NCc2nc3cc(C(=O)N(CCC(=O)O)c4ccccn4)ccc3n2C)cc1 [dabigatran]
